Results published in ChEMBL document CHEMBL1135137, “Synthesis and pharmacological characterization of a potent, orally active p38 kinase inhibitor” (Bioorg Med Chem Lett, 2002).
Converted amounts (≈) assume the structure as drawn.

Assays:
[1] = biological target: Mitogen-activated protein kinase 14 (Homo sapiens, UniProt Q16539); experiment: Inhibitory activity against Mitogen-activated protein kinase p38 alpha 2
SW1353 = experiment: TNF-alpha-induced IL-6 production in SW1353 cells; type: functional, cell-based; conditions: Homo sapiens
[2] = Solubility at pH 7.5; type: physicochemical; conditions: buffer
Mus musculus [3] = experiment: Percent inhibition of TNF-alpha-induced IL-6 production at 100 mg/kg peroral dose in mice; type: functional; conditions: route oral
[4] = Solubility at pH 2.0; type: physicochemical; conditions: buffer
Mus musculus [5] = experiment: Percent inhibition of TNF-alpha-induced IL-6 production at 50 mg/kg peroral dose in mice; type: functional; conditions: route oral
Mus musculus [6] = species on record: Mus musculus; experiment: animal or person; conditions: po, read-out: Inhibition
Mus musculus [7] = species on record: Mus musculus; experiment: animal or person; conditions: po, read-out: Inhibition; remark: listed apart in the source
Mus musculus [8] = experiment: Effect in murine model of arthritis onset in mice immunized with bovine type II collagen at 50 mg/kg; Histopathology in inflammatory cell; type: functional
Mus musculus [9] = species on record: Mus musculus; experiment: animal or person; conditions: po, read-out: Inhibition; remark: listed apart in the source
Mus musculus [10] = experiment: Effect in murine model of arthritis onset in mice immunized with bovine type II collagen at 50 mg/kg; Histopathology in interstitial edema; type: functional
Mus musculus [11] = experiment: Effect in murine model of arthritis onset in mice immunized with bovine type II collagen at 50 mg/kg; Number of paws affected; type: functional
Mus musculus [12] = experiment: Effect on LPS-induced TNF-alpha production in mice at 10 mg/kg peroral dose; type: functional; conditions: route oral
Mus musculus [13] = experiment: Effect on LPS-induced TNF-alpha production in mice at 30 mg/kg peroral dose; type: functional; conditions: route oral
Mus musculus [14] = experiment: Effect in murine model of arthritis onset in mice immunized with bovine type II collagen at 10 mg/kg; Histopathology in inflammatory cell; type: functional
[15] = biological target: Protein kinase C gamma type (Homo sapiens) (UniProt P05129); experiment: Inhibition of Protein kinase C gamma at 10 uM
Mus musculus [16] = experiment: Effect in murine model of arthritis onset in mice immunized with bovine type II collagen at 30 mg/kg; Histopathology in interstitial edema; type: functional
[17] = biological target: Tyrosine-protein kinase Lck (Homo sapiens) (UniProt P06239); experiment: Inhibition of p59 Lck tyrosine kinase at 10 uM
[18] = biological target: Protein kinase C beta type (Homo sapiens) (UniProt P05771); experiment: Inhibition of Protein kinase C beta at 10 uM
Mus musculus [19] = experiment: Percent inhibition of TNF-alpha-induced IL-6 production at 25 mg/kg peroral dose in mice; type: functional; conditions: route oral
Mus musculus [20] = experiment: Effect on LPS-induced TNF-alpha production in mice at 20 mg/kg peroral dose; type: functional; conditions: route oral
Mus musculus [21] = experiment: Effect in murine model of arthritis onset in mice immunized with bovine type II collagen at 30 mg/kg; Histopathology in inflammatory cell; type: functional
[22] = biological target: Mitogen-activated protein kinase 3 (Homo sapiens) (UniProt P27361); experiment: Inhibition of Mitogen-activated protein kinase 3 at 5 uM
Mus musculus [23] = experiment: Effect on LPS-induced TNF-alpha production in mice at 50 mg/kg peroral dose; type: functional; conditions: route oral
Mus musculus [24] = experiment: Effect in murine model of arthritis onset in mice immunized with bovine type II collagen at 10 mg/kg; Number of paws affected; type: functional
Mus musculus [25] = experiment: Effect in murine model of arthritis onset in mice immunized with bovine type II collagen at 10 mg/kg; Histopathology in interstitial edema; type: functional
Mus musculus [26] = experiment: Effect in murine model of arthritis onset in mice immunized with bovine type II collagen at 30 mg/kg; Number of paws affected; type: functional
[27] = biological target: Protein kinase C alpha type (Homo sapiens) (UniProt P17252); experiment: Inhibition of Protein kinase C alpha at 10 uM
Mus musculus [28] = experiment: Effect in murine model of arthritis onset in mice immunized with bovine type II collagen at 3 mg/kg; Histopathology in interstitial edema; type: functional
[29] = biological target: Tyrosine-protein kinase ABL (Homo sapiens) (UniProt P00519+P42684); experiment: Inhibition of Abl tyrosine kinase at 5 uM; type: protein assay
[30] = biological target: Mitogen-activated protein kinase 8 (Homo sapiens) (UniProt P45983); experiment: Inhibition of c-Jun N-terminal kinase 1 at 0.5 uM
[31] = biological target: Epidermal growth factor receptor (Homo sapiens) (UniProt P00533); experiment: Inhibition of Epidermal growth factor receptor at 10 uM
[32] = biological target: Receptor tyrosine-protein kinase erbB-2 (Homo sapiens, UniProt P04626); experiment: Inhibition of human epidermal growth factor receptor-2
[33] = biological target: Mitogen-activated protein kinase 11 (Homo sapiens, UniProt Q15759); experiment: Inhibition of Mitogen-activated protein kinase p38 beta
[34] = biological target: cAMP-dependent protein kinase (PKA) (Homo sapiens) (UniProt P22694+P17612+P22612); experiment: Inhibition of Protein kinase A at 10 uM; type: protein assay
[35] = biological target: Tyrosine-protein kinase Fyn (Homo sapiens) (UniProt P06241); experiment: Inhibition of p59 Fyn tyrosine kinase at 10 uM
Mus musculus [36] = experiment: Percentage inhibition of LPS-induced TNF-alpha production in mice at 50 mg/kg peroral dose; type: functional; conditions: route oral
Mus musculus [37] = experiment: Percentage inhibition of LPS-induced TNF-alpha production in mice at 20 mg/kg peroral dose; type: functional; conditions: route oral
Mus musculus [38] = experiment: Effect in murine model of arthritis onset in mice immunized with bovine type II collagen at 3 mg/kg; Histopathology in inflammatory cell; type: functional
Mus musculus [39] = experiment: Effect in murine model of arthritis onset in mice immunized with bovine type II collagen at 3 mg/kg; Number of paws affected; type: functional
Mus musculus [40] = experiment: Percentage inhibition of LPS-induced TNF-alpha production in mice at 10 mg/kg peroral dose; type: functional; conditions: route oral
Mus musculus [41] = experiment: Percent inhibition of TNF-alpha-induced IL-6 production at 10 mg/kg peroral dose in mice; type: functional; conditions: route oral

Sequence of Mitogen-activated protein kinase 14 (Q16539 whole entry): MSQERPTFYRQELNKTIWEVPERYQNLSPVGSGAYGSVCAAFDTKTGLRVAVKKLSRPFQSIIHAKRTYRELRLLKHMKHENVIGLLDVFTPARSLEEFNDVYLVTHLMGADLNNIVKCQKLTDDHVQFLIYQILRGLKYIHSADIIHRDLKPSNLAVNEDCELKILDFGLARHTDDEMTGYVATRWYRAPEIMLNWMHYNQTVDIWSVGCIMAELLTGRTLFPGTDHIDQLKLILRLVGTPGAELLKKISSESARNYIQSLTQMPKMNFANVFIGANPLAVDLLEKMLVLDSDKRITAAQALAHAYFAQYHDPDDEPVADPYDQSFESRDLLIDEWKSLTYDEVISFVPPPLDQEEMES
Sequence of Receptor tyrosine-protein kinase erbB-2 (P04626 whole entry): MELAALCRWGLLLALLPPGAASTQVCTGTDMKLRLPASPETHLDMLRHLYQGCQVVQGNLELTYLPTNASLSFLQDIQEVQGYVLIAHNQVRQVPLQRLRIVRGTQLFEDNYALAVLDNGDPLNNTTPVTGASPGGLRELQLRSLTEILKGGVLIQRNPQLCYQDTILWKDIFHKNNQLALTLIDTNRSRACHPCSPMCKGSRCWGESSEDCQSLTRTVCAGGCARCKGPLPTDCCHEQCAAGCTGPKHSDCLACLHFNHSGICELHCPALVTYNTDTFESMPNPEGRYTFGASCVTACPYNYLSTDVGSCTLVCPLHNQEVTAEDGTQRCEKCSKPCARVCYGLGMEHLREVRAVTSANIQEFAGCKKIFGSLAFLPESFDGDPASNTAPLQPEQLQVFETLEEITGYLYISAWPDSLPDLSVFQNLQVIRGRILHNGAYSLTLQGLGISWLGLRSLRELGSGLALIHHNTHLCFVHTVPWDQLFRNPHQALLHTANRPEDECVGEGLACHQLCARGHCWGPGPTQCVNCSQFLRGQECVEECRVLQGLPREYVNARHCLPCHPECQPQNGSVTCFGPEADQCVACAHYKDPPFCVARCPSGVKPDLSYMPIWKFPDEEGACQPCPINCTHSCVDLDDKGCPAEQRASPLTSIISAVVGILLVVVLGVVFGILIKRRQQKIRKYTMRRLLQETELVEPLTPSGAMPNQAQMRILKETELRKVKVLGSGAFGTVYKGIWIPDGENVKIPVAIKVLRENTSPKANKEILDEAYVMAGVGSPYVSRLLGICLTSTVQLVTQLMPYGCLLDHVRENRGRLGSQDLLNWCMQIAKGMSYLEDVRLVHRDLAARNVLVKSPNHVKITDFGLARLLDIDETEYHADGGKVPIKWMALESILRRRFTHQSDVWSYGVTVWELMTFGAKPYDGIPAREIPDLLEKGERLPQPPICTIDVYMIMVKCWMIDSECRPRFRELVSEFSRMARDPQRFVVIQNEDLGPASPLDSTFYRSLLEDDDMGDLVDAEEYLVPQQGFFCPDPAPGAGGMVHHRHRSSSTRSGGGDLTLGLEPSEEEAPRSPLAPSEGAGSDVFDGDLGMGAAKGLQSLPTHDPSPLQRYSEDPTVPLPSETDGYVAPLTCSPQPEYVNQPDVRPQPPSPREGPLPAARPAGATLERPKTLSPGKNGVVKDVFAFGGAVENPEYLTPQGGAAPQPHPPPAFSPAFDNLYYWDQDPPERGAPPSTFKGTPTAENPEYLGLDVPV
Sequence of Tyrosine-protein kinase Lck (Homo sapiens) (P06239 2-509 limits assumed): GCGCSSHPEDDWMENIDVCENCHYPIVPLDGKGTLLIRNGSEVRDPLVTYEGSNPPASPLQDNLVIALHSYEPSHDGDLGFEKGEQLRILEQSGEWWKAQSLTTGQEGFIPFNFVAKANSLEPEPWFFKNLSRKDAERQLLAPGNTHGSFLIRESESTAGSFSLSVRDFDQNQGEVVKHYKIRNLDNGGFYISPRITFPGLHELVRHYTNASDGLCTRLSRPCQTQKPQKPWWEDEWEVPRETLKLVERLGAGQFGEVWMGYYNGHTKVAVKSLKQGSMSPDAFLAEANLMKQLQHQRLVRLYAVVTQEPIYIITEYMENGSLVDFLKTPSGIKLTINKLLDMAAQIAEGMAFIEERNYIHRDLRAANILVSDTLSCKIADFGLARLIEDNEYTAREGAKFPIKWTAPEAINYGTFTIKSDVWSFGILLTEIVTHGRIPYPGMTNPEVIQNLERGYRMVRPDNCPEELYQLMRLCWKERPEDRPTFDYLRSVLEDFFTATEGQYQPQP
Sequence of Protein kinase C beta type (Homo sapiens) (P05771 2-671 limits assumed): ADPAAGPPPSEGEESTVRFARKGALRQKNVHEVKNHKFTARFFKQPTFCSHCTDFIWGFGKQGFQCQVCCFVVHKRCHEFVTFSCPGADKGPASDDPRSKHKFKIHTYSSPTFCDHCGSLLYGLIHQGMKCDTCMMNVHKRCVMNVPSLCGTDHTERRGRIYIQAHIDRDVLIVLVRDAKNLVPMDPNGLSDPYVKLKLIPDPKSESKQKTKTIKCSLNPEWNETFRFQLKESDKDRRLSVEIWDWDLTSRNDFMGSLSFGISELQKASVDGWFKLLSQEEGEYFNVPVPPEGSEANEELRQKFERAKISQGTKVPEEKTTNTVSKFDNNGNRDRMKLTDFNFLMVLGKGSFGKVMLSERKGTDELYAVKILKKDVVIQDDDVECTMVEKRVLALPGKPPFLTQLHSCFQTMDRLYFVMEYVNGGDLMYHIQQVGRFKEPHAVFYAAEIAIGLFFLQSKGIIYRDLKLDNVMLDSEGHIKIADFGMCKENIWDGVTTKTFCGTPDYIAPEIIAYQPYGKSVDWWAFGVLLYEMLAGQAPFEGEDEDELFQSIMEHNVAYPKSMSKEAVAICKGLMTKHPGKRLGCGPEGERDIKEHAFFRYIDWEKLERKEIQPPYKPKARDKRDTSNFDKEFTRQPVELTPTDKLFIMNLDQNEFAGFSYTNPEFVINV
Sequence of Mitogen-activated protein kinase 8 (Homo sapiens) (P45983 whole entry): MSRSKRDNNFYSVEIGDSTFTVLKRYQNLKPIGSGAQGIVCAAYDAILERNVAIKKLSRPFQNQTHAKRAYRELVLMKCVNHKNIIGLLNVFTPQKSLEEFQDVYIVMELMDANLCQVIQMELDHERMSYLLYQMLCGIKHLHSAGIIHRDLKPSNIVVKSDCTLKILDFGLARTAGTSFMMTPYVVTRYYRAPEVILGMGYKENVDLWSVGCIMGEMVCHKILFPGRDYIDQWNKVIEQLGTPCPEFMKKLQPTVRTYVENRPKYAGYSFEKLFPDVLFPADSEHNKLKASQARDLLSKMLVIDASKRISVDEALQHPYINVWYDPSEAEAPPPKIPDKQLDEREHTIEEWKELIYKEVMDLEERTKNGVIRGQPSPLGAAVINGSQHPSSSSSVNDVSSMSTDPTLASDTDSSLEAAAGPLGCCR
Sequence of Tyrosine-protein kinase Fyn (Homo sapiens) (P06241 2-537 limits assumed): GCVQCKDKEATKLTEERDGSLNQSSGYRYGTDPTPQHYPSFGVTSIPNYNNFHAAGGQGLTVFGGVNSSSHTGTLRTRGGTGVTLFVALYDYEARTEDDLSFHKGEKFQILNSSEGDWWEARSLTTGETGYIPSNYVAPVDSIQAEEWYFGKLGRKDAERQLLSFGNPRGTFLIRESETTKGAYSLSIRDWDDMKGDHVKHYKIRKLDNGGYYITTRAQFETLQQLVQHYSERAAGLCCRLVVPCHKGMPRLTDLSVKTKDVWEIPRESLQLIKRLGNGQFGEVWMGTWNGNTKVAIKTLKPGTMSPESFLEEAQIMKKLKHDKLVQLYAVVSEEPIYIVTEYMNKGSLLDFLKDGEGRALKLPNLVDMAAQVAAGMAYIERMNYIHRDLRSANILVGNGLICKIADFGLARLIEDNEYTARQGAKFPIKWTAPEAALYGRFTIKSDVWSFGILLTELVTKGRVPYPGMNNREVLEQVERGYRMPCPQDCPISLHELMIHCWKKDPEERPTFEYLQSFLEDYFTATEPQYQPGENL
Sequence of Mitogen-activated protein kinase 11 (Q15759 whole entry): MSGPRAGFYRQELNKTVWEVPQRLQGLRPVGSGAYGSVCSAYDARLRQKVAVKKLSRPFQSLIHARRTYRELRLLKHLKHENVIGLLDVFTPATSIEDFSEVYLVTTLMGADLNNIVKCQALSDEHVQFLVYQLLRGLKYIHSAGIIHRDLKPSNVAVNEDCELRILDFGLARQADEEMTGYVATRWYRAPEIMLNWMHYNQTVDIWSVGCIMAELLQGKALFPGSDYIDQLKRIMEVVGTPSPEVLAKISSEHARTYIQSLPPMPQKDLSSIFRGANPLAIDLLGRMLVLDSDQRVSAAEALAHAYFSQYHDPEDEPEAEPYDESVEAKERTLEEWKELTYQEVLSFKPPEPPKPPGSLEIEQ

Compound: Cn1nc(C(C)(C)C)cc1NC(=O)Nc1ccc(Cc2ccc(N)cc2)cc1
- IC50 [1]: 290 nM

Compound: CCC(=O)Nc1ccc(Cc2ccc(NC(=O)Nc3cc(C(C)(C)C)nn3C)cc2)cc1
- IC50 [1]: 38 nM
- IC50 (SW1353): 1750 nM

Compound: Cn1nc(C(C)(C)C)cc1NC(=O)Nc1ccc(Cc2ccc(NC(=O)CCC(=O)O)cc2)cc1
- IC50 [1]: 200 nM
- IC50 (SW1353): > 2500 nM

Compound: Cn1nc(C(C)(C)C)cc1NC(=O)Nc1ccc(CCc2ccncc2)cc1
- IC50 [1]: 430 nM

Compound: Cn1nc(C(C)(C)C)cc1NC(=O)Nc1ccc(Sc2ccncc2)cc1
- solubility [2]: 655 µg/mL (≈ 1720 µM)
- inhibition in vivo at 100 mg/kg (Mus musculus [3]): < 90%
- solubility [4]: 1660 µg/mL (≈ 4350 µM)
- IC50 [1]: 13 nM
- inhibition in vivo at 50 mg/kg (Mus musculus [5]): < 77%
- IC50 (SW1353): 95 nM

Compound: C[S+]([O-])c1ccc(-c2nc(-c3ccc(F)cc3)c(-c3ccncc3)[nH]2)cc1 (stereo not given) [SB-203580]
- inhibition in vivo at 100 mg/kg (Mus musculus [6]): 80%
- inhibition in vivo at 30 mg/kg (Mus musculus [7]): < 65.4%
- IC (Mus musculus [8]): 0.63
- inhibition in vivo at 10 mg/kg (Mus musculus [9]): -1.4%
- IO (Mus musculus [10]): 0.25
- Activity (Mus musculus [11]): 1
- Activity (Mus musculus [12]): 38 ng/mL
- Activity (Mus musculus [13]): 13 ng/mL

Compound: CC(=O)Nc1ccc(Oc2ccc(NC(=O)Nc3cc(C(C)(C)C)nn3C)cc2)cc1
- IC50 [1]: 235 nM

Compound: CCC(=O)Nc1ccc(Oc2ccc(NC(=O)Nc3cc(C(C)(C)C)nn3C)cc2)cc1
- IC50 [1]: 69 nM
- IC50 (SW1353): 1060 nM

Compound: Cn1nc(C(C)(C)C)cc1NC(=O)Nc1ccc(Oc2ccc(C(C)(C)C)cc2)cc1
- IC50 [1]: 183 nM

Compound: Cn1nc(C(C)(C)C)cc1NC(=O)Nc1ccc(Cc2ccc(NC(=O)OC(C)(C)C)cc2)cc1
- IC50 [1]: 87 nM
- IC50 (SW1353): 57 nM

Compound: Cn1nc(C(C)(C)C)cc1NC(=O)Nc1ccc(Oc2ccc(N)cc2)cc1
- IC50 [1]: 310 nM

Compound: Cn1nc(C(C)(C)C)cc1NC(=O)Nc1ccc(Oc2ccc(OCc3ccccc3)cc2)cc1
- IC50 [1]: 110 nM

Compound: Cn1nc(C(C)(C)C)cc1NC(=O)Nc1ccc(OCc2ccncc2)cc1
- IC50 [1]: 260 nM

Compound: CC(C)CC(=O)Nc1ccc(Oc2ccc(NC(=O)Nc3cc(C(C)(C)C)nn3C)cc2)cc1
- IC50 [1]: 45 nM
- IC50 (SW1353): 313 nM

Compound: Cn1nc(C(C)(C)C)cc1NC(=O)Nc1ccc(Oc2ccccc2)cc1
- IC50 [1]: 270 nM

Compound: CC(=O)Nc1ccc(Cc2ccc(NC(=O)Nc3cc(C(C)(C)C)nn3C)cc2)cc1
- IC50 [1]: 70 nM

Compound: CC(C)OC(=O)Nc1ccc(Oc2ccc(NC(=O)Nc3cc(C(C)(C)C)nn3C)cc2)cc1
- IC50 [1]: 54 nM
- IC50 (SW1353): 162 nM

Compound: Cc1ccc(Oc2ccc(NC(=O)Nc3cc(C(C)(C)C)nn3C)cc2)cc1
- IC50 [1]: 160 nM

Compound: CCCCOc1ccc(Sc2ccc(NC(=O)Nc3cc(C(C)(C)C)nn3C)cc2)cc1
- IC50 [1]: 69 nM
- IC50 (SW1353): > 2500 nM

Compound: Cn1nc(C(C)(C)C)cc1NC(=O)Nc1ccc(Cc2ccncc2)cc1
- Activity (Mus musculus [14]): 0.78
- inhibition [15]: 21%
- Activity (Mus musculus [16]): 0.2
- solubility [2]: 50 µg/mL (≈ 138 µM)
- inhibition [17]: 8%
- inhibition [18]: 5%
- inhibition in vivo at 25 mg/kg (Mus musculus [19]): 60%
- Activity (Mus musculus [20]): 19.8 ng/mL
- Activity (Mus musculus [21]): 0.38
- inhibition [22]: 8%
- Activity (Mus musculus [23]): 5.1 ng/mL
- Activity (Mus musculus [24]): 1.9
- Activity (Mus musculus [25]): 0.3
- solubility [4]: 2000 µg/mL (≈ 5500 µM)
- Activity (Mus musculus [26]): 0.7
- inhibition [27]: 0%
- IO (Mus musculus [28]): 0.33
- inhibition [29]: 3%
- inhibition [30]: 2%
- inhibition [31]: 17%
- IC50 [32]: 4.2 nM
- IC50 [33]: 110 nM
- inhibition [34]: 7%
- inhibition [35]: 20%
- inhibition in vivo at 50 mg/kg (Mus musculus [36]): < 86.5%
- Activity (Mus musculus [12]): 46.7 ng/mL
- inhibition in vivo at 50 mg/kg (Mus musculus [5]): 84%
- inhibition in vivo at 20 mg/kg (Mus musculus [37]): < 47.1%
- IC (Mus musculus [38]): 0.8
- Activity (Mus musculus [39]): 1.4
- IC50 (SW1353): 323 nM
- inhibition in vivo at 10 mg/kg (Mus musculus [40]): -24.5%

Compound: Cn1nc(C(C)(C)C)cc1NC(=O)Nc1ccc(SCc2ccncc2)cc1
- IC50 [1]: 140 nM

Compound: Cn1nc(C(C)(C)C)cc1NC(=O)Nc1ccc(Nc2ccncc2)cc1
- IC50 [1]: 420 nM

Compound: Cn1nc(C(C)(C)C)cc1NC(=O)Nc1ccc(Sc2ccc(O)cc2)cc1
- IC50 [1]: 35 nM
- IC50 (SW1353): 1100 nM

Compound: Cn1nc(C(C)(C)C)cc1NC(=O)Nc1ccc(CSc2ccncc2)cc1
- inhibition in vivo at 10 mg/kg (Mus musculus [41]): -15%
- solubility [2]: 322 µg/mL (≈ 814 µM)
- inhibition in vivo at 25 mg/kg (Mus musculus [19]): 22%
- solubility [4]: 5160 µg/mL (≈ 13000 µM)
- IC50 [1]: 44 nM
- inhibition in vivo at 50 mg/kg (Mus musculus [5]): < 64%
- IC50 (SW1353): 584 nM

Compound: CC(C)CC(=O)Nc1ccc(Cc2ccc(NC(=O)Nc3cc(C(C)(C)C)nn3C)cc2)cc1
- IC50 [1]: 37 nM
- IC50 (SW1353): 170 nM

Compound: CCOC(=O)Nc1ccc(Oc2ccc(NC(=O)Nc3cc(C(C)(C)C)nn3C)cc2)cc1
- solubility [2]: 95 µg/mL (≈ 210 µM)
- solubility [4]: 77 µg/mL (≈ 171 µM)
- IC50 [1]: 33 nM
- inhibition in vivo at 50 mg/kg (Mus musculus [5]): 16%
- IC50 (SW1353): 87 nM

Compound: CCCOc1ccc(Sc2ccc(NC(=O)Nc3cc(C(C)(C)C)nn3C)cc2)cc1
- IC50 [1]: 57 nM
- IC50 (SW1353): 235 nM
